Patent publication US20020102280A1, “Solvent systems for pharmaceutical agents” (priority 2000, published 2002)
Read-outs that look alike come from different tables or passages of the source.

Experiments:
[1] = Solubilizing paclitaxel in essential oils
[2] = physchem
From the text: Approximately 0.17 gm of Epikuron 200, 0.7 gm essential oil of sweet basil, 0.25 gm of water, and 0.25 gm of glycerol were mixed and the mixture centrifuged.
In this experiment, essential oils of ginger and sweet basil were combined to solubilize the bioactive compound ubiquinone (a coenzyme Q10) in a phospholipid-rich reversed liquid crystal.

[3] = water-solubilized hydrochloride form; cited from earlier work
[4] = free base form; cited from earlier work
[5] = cited from earlier work
[6] = cited from earlier work; remark: listed apart in the source
[7] = oral, intramuscular and intraperitoneal routes; cited from earlier work

Structure (SMILES): CC(=O)O[C@H]1C(=O)[C@@]2(C)[C@H]([C@H](OC(=O)c3ccccc3)[C@]3(O)C[C@H](OC(=O)[C@H](O)[C@@H](NC(=O)c4ccccc4)c4ccccc4)C(C)=C1C3(C)C)[C@]1(OC(C)=O)CO[C@@H]1C[C@@H]2O [Paclitaxel, paclitaxel]
- Paclitaxel solubility (w/w, approx) ([1]; in oil of bay): ~16%
- Paclitaxel solubility (w/w, approx) ([1]; in palmarosa oil): >10%
- Paclitaxel solubility (w/w, approx) ([1]; in peppermint oil): >5%
- Paclitaxel solubility (w/w, approx) ([1]; in sweet basil oil): ~7%
- Paclitaxel solubility (w/w, approx) ([1]; in thyme oil): ~10%
- solubility ([2]; oil or lipid): ≥ 5000 µg/mL

Structure (SMILES): CCCCN1CCCCC1C(=O)Nc1c(C)cccc1C.Cl (stereo not drawn) [bupivicaine hydrochloride]
- therapeutic half life [3]: only a few hours

Structure (SMILES): COC1=C(OC)C(=O)C(C/C=C(\C)CC/C=C(\C)CC/C=C(\C)CC/C=C(\C)CC/C=C(\C)CC/C=C(\C)CC/C=C(\C)CC/C=C(\C)CC/C=C(\C)CCC=C(C)C)=C(C)C1=O [Coenzyme Q10, ubiquinone]
- solubilization in reversed bicontinuous cubic phase [2]: solubilized
- solubilization in reversed cubic phase [2]: fully solubilized

Structure (SMILES): N.[Cl][Pt][Cl].c1cscn1 [trans-[Pt(II)Cl2(NH3)(thiazole)]]
- level solubilized in reversed cubic phase [2]: about 2.4%

Structure (SMILES): CCCCN1CCCCC1C(=O)Nc1c(C)cccc1C (stereo not drawn) [bupivicaine]
- KOW (octanol-water partition coefficient) [4]: approximately 1500
- solubilization in liquid crystal (reversed cubic phase) [2]: solubilized

Structure (SMILES): O=C1CN(/N=C/c2ccc(-c3ccc([N+](=O)[O-])cc3)o2)C(O)=N1 [Dantrolene, dantrolene]
- solubility in water ([5]; listed as dantrolene): approximately 150 mg/L
- solubility in simple phospholipid-water systems [6]: very low

Structure (SMILES): C=CC(C)(O)CCC=C(C)C (stereo not drawn) [Linalool, linalool]
- toxicity [7]: extremely low toxicity

Structure (SMILES): O=C1CN(/N=C/c2ccc(-c3ccc([N+](=O)[O-])cc3)o2)C(O)=N1 [Dantrolene sodium, dantrolene sodium]
- solubility in water [5]: ~300 µg/mL
- solubilization in reversed cubic phase [2]: free of dantrolene crystals
- dissolution in reversed cubic liquid crystalline phase ([2]; Experiment 10: 3 mg in Epikuron 200/ascorbyl palmitate/gentisic acid/aminocaproic acid/ethanolamine/water + oil of ginger): dissolved
